In brackets after ≈: the same amount, converted by molar mass. Activity calls are given as the source filed them. The rule behind the calls is not given here.
Tests used:
Listeria = experiment: Antibacterial activity against Listeria sps. assessed as inhibition of bacterial growth by two-fold serial broth dilution method; assay type: functional
Escherichia coli = experiment: Antibacterial activity against Escherichia coli assessed as inhibition of bacterial growth by two-fold serial broth dilution method; assay type: functional
Staphylococcus aureus = experiment: Antibacterial activity against Staphylococcus aureus assessed as inhibition of bacterial growth by two-fold serial broth dilution method; assay type: functional
Enterococcus faecalis [1] = experiment: Antibacterial activity against Enterococcus faecalis assessed as inhibition of bacterial growth by two-fold serial broth dilution method; assay type: functional
Salmonella enterica = experiment: Antibacterial activity against Salmonella enterica assessed as inhibition of bacterial growth by two-fold serial broth dilution method; assay type: functional
[2] = tested on: Acinetobacter calcoaceticus; experiment: Antibacterial activity against Acinetobacter calcoaceticus assessed as inhibition of bacterial growth by two-fold serial broth dilution method; assay type: functional
Bacillus subtilis = experiment: Antibacterial activity against Bacillus subtilis assessed as inhibition of bacterial growth by two-fold serial broth dilution method; assay type: functional
Serratia marcescens = experiment: Antibacterial activity against Serratia marcescens assessed as inhibition of bacterial growth by two-fold serial broth dilution method; assay type: functional
HOP-92 = experiment: Cytotoxicity against human HOP-92 cells assessed as inhibition of cell growth at 10 uM; assay type: functional
MOLT-4 = experiment: Cytotoxicity against human MOLT-4 cells assessed as inhibition of cell growth at 10 uM; assay type: functional
SK-MEL-5 = experiment: Cytotoxicity against human SK-MEL-5 cells assessed as inhibition of cell growth at 10 uM; assay type: functional
M14 = experiment: Cytotoxicity against human M14 cells assessed as inhibition of cell growth at 10 uM; assay type: functional
HEK293 [3] = experiment: Cytotoxicity against human HEK293 cells at 0.1 uM by MTT assay; assay type: toxicity, cell-based; conditions: hek293, 0.1 µM
MDA-MB-468 = experiment: Cytotoxicity against human MDA-MB-468 cells at 10 uM; assay type: functional
HEK293 [4] = experiment: Cytotoxicity against human HEK293 cells at 10 uM by MTT assay; assay type: toxicity, cell-based; conditions: hek293, 10 µM
MDA-MB-435 = experiment: Cytotoxicity against human MDA-MB-435 cells at 10 uM; assay type: functional
HEK293 [5] = experiment: Cytotoxicity against human HEK293 cells at 100 uM by MTT assay; assay type: toxicity, cell-based; conditions: hek293, 100 µM
COLO 205 = experiment: Cytotoxicity against human COLO 205 cells assessed as inhibition of cell growth at 10 uM; assay type: functional
HEK293 [6] = experiment: Cytotoxicity against human HEK293 cells at 1 uM by MTT assay; assay type: toxicity, cell-based; conditions: hek293, 1 µM
A498 = experiment: Cytotoxicity against human A498 cells at 10 uM; assay type: functional
HEK293 [7] = experiment: Cytotoxicity against human HEK293 cells at 0.01 uM by MTT assay; assay type: toxicity, cell-based; conditions: hek293, 0.01 µM
Enterococcus faecalis [8] = experiment: Potency index, ratio of amoxicillin MIC to test compound MIC for antibacterial activity against Enterococcus faecalis; assay type: functional
Enterococcus faecalis [9] = experiment: Potency index, ratio of chloromycin MIC to test compound MIC for antibacterial activity against Enterococcus faecalis; assay type: functional

Compound: O=C1c2cccc3cccc(c23)C(=O)N1Nc1nc(NC2CCCCC2)nc(N2CCOCC2)n1
- MIC (Listeria): 25 µg/mL (≈ 52.8 µM)
- MIC (Escherichia coli): 200 µg/mL (≈ 422 µM)
- MIC (Staphylococcus aureus): 100 µg/mL (≈ 211 µM)
- MIC (Enterococcus faecalis [1]): 3.12 µg/mL (≈ 6.59 µM)
- MIC (Salmonella enterica): 200 µg/mL (≈ 422 µM)
- MIC [2]: 200 µg/mL (≈ 422 µM)
- MIC (Bacillus subtilis): 50 µg/mL (≈ 106 µM)
- MIC (Serratia marcescens): 200 µg/mL (≈ 422 µM)

Compound: O=c1[nH]cc(F)c(=O)[nH]1 [FLUOROURACIL]
- inhibition at 10 µM (HOP-92): 50.6%
- inhibition at 10 µM (MOLT-4): 42.3%
- inhibition at 10 µM (SK-MEL-5): 66.3%

Compound: N#Cc1ccc(CNc2nc(NN3C(=O)c4cccc5cccc(c45)C3=O)nc(N3CCOCC3)n2)cc1
- MIC (Listeria): 200 µg/mL (≈ 395 µM)
- MIC (Escherichia coli): 200 µg/mL (≈ 395 µM)
- MIC (Staphylococcus aureus): 100 µg/mL (≈ 197 µM)
- MIC (Enterococcus faecalis [1]): 100 µg/mL (≈ 197 µM)
- MIC (Salmonella enterica): 400 µg/mL (≈ 790 µM)
- MIC [2]: 100 µg/mL (≈ 197 µM)
- MIC (Bacillus subtilis): 400 µg/mL (≈ 790 µM)
- MIC (Serratia marcescens): 200 µg/mL (≈ 395 µM)

Compound: c1ccc(CNc2nc(NCc3ccccc3)nc(N3CCOCC3)n2)cc1
- MIC (Listeria): inactive
- MIC (Escherichia coli): inactive
- MIC (Staphylococcus aureus): 200 µg/mL (≈ 531 µM)
- MIC (Enterococcus faecalis [1]): 400 µg/mL (≈ 1060 µM)
- MIC (Salmonella enterica): inactive
- MIC [2]: 200 µg/mL (≈ 531 µM)
- MIC (Bacillus subtilis): inactive
- MIC (Serratia marcescens): inactive

Compound: O=C1c2cccc3cccc(c23)C(=O)N1Nc1nc(N2CCOCC2)nc(N2CCN(Cc3ccccc3)CC2)n1
- MIC (Listeria): 6.25 µg/mL (≈ 11.4 µM)
- MIC (Escherichia coli): 200 µg/mL (≈ 363 µM)
- MIC (Staphylococcus aureus): 100 µg/mL (≈ 182 µM)
- MIC (Enterococcus faecalis [1]): 200 µg/mL (≈ 363 µM)
- MIC (Salmonella enterica): 200 µg/mL (≈ 363 µM)
- MIC [2]: 200 µg/mL (≈ 363 µM)
- MIC (Bacillus subtilis): 200 µg/mL (≈ 363 µM)
- MIC (Serratia marcescens): 50 µg/mL (≈ 90.8 µM)

Compound: O=C1c2cccc3cccc(c23)C(=O)N1Nc1nc(N2CCOCC2)nc(N2CCN(c3ccccc3)CC2)n1
- inhibition at 10 µM (M14): 80.6%
- MIC (Listeria): 0.39 µg/mL (≈ 0.727 µM)
- Activity (HEK293 [3]): 13.57%
- Activity (MDA-MB-468): -15.85%
- MIC (Escherichia coli): inactive
- Activity (HEK293 [4]): 12%
- Activity (MDA-MB-435): -12.6%
- Activity (HEK293 [5]): 10.08%
- MIC (Staphylococcus aureus): 100 µg/mL (≈ 186 µM)
- MIC (Enterococcus faecalis [1]): 200 µg/mL (≈ 373 µM)
- inhibition at 10 µM (COLO 205): 96.5%
- MIC (Salmonella enterica): 200 µg/mL (≈ 373 µM)
- inhibition at 10 µM (HOP-92): 92.5%
- MIC [2]: 200 µg/mL (≈ 373 µM)
- MIC (Bacillus subtilis): 50 µg/mL (≈ 93.2 µM)
- Activity (HEK293 [6]): 13.01%
- inhibition at 10 µM (MOLT-4): 81.6%
- Activity (A498): -3.13%
- Activity (HEK293 [7]): 14.05%
- inhibition at 10 µM (SK-MEL-5): 95%
- MIC (Serratia marcescens): 50 µg/mL (≈ 93.2 µM)

Compound: CCCCNc1nc(NN2C(=O)c3cccc4cccc(c34)C2=O)nc(N2CCOCC2)n1
- Ratio (Enterococcus faecalis [8]): 17
- MIC (Listeria): 200 µg/mL (≈ 447 µM)
- MIC (Escherichia coli): 400 µg/mL (≈ 894 µM)
- MIC (Staphylococcus aureus): 12.5 µg/mL (≈ 27.9 µM)
- MIC (Enterococcus faecalis [1]): 0.09 µg/mL (≈ 0.201 µM)
- MIC (Salmonella enterica): 100 µg/mL (≈ 223 µM)
- Ratio (Enterococcus faecalis [9]): 34
- MIC [2]: 200 µg/mL (≈ 447 µM)
- MIC (Bacillus subtilis): 25 µg/mL (≈ 55.9 µM)
- MIC (Serratia marcescens): 200 µg/mL (≈ 447 µM)

Compound: COc1ccc(CNc2nc(NN3C(=O)c4cccc5cccc(c45)C3=O)nc(N3CCOCC3)n2)cc1
- MIC (Listeria): 50 µg/mL (≈ 97.7 µM)
- MIC (Escherichia coli): 200 µg/mL (≈ 391 µM)
- MIC (Staphylococcus aureus): 6.25 µg/mL (≈ 12.2 µM)
- MIC (Enterococcus faecalis [1]): 3.12 µg/mL (≈ 6.11 µM)
- MIC (Salmonella enterica): 100 µg/mL (≈ 195 µM)
- MIC [2]: 100 µg/mL (≈ 195 µM)
- MIC (Bacillus subtilis): 12.5 µg/mL (≈ 24.4 µM)
- MIC (Serratia marcescens): 200 µg/mL (≈ 391 µM)

Compound: CN1CCN(c2nc(NN3C(=O)c4cccc5cccc(c45)C3=O)nc(N3CCOCC3)n2)CC1
- MIC (Listeria): 0.006 µg/mL (≈ 0.0126 µM)
- MIC (Escherichia coli): 100 µg/mL (≈ 211 µM)
- MIC (Staphylococcus aureus): 1.56 µg/mL (≈ 3.29 µM)
- MIC (Enterococcus faecalis [1]): 200 µg/mL (≈ 421 µM)
- MIC (Salmonella enterica): 200 µg/mL (≈ 421 µM)
- MIC [2]: 200 µg/mL (≈ 421 µM)
- MIC (Bacillus subtilis): 200 µg/mL (≈ 421 µM)
- MIC (Serratia marcescens): 12.5 µg/mL (≈ 26.3 µM)

Compound: CC1(C)S[C@@H]2[C@H](NC(=O)[C@H](N)c3ccc(O)cc3)C(=O)N2[C@H]1C(=O)O [AMOXICILLIN]
- MIC (Listeria): 50 µg/mL (≈ 137 µM)
- MIC (Escherichia coli): 100 µg/mL (≈ 274 µM)
- MIC (Staphylococcus aureus): 25 µg/mL (≈ 68.4 µM)
- MIC (Enterococcus faecalis [1]): 1.56 µg/mL (≈ 4.27 µM)
- MIC (Salmonella enterica): 200 µg/mL (≈ 547 µM)
- MIC [2]: 50 µg/mL (≈ 137 µM)
- MIC (Bacillus subtilis): 50 µg/mL (≈ 137 µM)
- MIC (Serratia marcescens): 1.56 µg/mL (≈ 4.27 µM)

Compound: O=C1c2cccc3cccc(c23)C(=O)N1Nc1nc(N2CCOCC2)nc(N2CCOCC2)n1
- MIC (Listeria): 200 µg/mL (≈ 433 µM)
- MIC (Escherichia coli): 200 µg/mL (≈ 433 µM)
- MIC (Staphylococcus aureus): 1.56 µg/mL (≈ 3.38 µM)
- MIC (Enterococcus faecalis [1]): 200 µg/mL (≈ 433 µM)
- MIC (Salmonella enterica): 100 µg/mL (≈ 217 µM)
- MIC [2]: 200 µg/mL (≈ 433 µM)
- MIC (Bacillus subtilis): 100 µg/mL (≈ 217 µM)
- MIC (Serratia marcescens): 200 µg/mL (≈ 433 µM)
